From US12350260B2 (priority 2019, dated 2025)
Where “and” joins values, the source holds several entries; their conditions need not be identical. Equal values may be shown once.

Assays:
[1] = test system: sensory neurons; format: cell-based, rat
[2] = test system: co-cultured sensory neurons and keratinocytes; format: cell-based, rat DRG neurons, human keratinocytes
[3] = target: T1, PAR-2 (Homo sapiens, UniProt P55085); settings: cited from earlier work
[4] = test system: DRG neurons; format: cell-based, rat
[5] = test system: co-cultured DRG neurons and keratinocytes; format: cell-based, rat DRG neurons, human keratinocytes
[6] = target: T1, PAR-2; settings: cited from earlier work; remark: listed apart in the source
[7] = in vivo, cited from earlier work
[8] = not told; cited from earlier work
[9] = test system: primary human epidermal keratinocytes; format: cell-based
[10] = test system: PAR-2; format: cell-based, rat

T1 sequence (P55085 26-397): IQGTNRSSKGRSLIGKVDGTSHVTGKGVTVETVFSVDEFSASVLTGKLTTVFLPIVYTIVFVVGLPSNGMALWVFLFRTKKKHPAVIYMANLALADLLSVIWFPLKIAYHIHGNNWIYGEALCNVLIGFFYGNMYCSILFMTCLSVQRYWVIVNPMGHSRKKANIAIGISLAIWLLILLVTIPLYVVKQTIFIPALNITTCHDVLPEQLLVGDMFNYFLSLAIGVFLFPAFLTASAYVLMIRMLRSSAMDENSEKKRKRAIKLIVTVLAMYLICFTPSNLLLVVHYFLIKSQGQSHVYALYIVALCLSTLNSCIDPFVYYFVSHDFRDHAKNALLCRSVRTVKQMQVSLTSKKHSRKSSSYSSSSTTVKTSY

Cl.Cn1cc(C2=C(c3c4n(c5ccccc35)CCC(CN)C4)C(=O)NC2=O)c2ccccc21 (centres unmarked) [BimX, Bisindolylmaleimide X hydrochloride]
normalized amplitude values in each phase (FIGS. 9B, 9D, 9F) [1]: No significant modification
normalized percentage of cells responding to PbTx-1 with the first peak [1]: did not decrease
normalized percentage of cells responding to PbTx-1 with the second peak [1]: 67.7±7.5%
PbTx-1-induced SP release with pre-treatment (normalized levels) [2]: 37.4±5.9%

Cc1c(C(=O)Nc2cccc(C(F)(F)F)c2)cc(-c2ccccc2)n1CCCN1CCOCC1 [HC-067047]
normalized amplitude values in each phase (FIGS. 9B, 9D, 9F) [1]: No significant modification
normalized percentage of cells responding to PbTx-1 with the first peak [1]: 59.4±11.5%
normalized percentage of cells responding to PbTx-1 with the plateau [1]: 35.0±16.1%
normalized percentage of cells responding to PbTx-1 with the second peak [1]: 35.6±11.5%
PbTx-1-induced SP release with pre-treatment (normalized levels) [2]: 58.7±14.5% and 41.3±14.5%

CC[C@H](C)[C@H](NC(=O)[C@H](CC1CCCCC1)NC(=O)c1ccno1)C(=O)N1CCC2(CCc3ccccc32)CC1 [GB88]
PAR-2 calcium signaling / calcium mobilization [3]: inhibit

CCC(C)[C@H](NC(=O)[C@H](CC1CCCCC1)NC(=O)c1ccno1)C(=O)N1CCC2(CCc3ccccc32)CC1 (some centres unmarked) [GB83]
normalized amplitude of the first peak in responding cells (% of P-CTX-2 alone) [4]: 31.2±4.2%
normalized amplitude values of the plateau in responding cells (% of P-CTX-2 alone) [4]: 50.1±8.7%
normalized percentage of cells responding with a second peak (% of P-CTX-2 alone) [4]: 16.7±4.1%
normalized percentage of cells responding with the first peak (% of P-CTX-2 alone) [4]: 34.5±10.5%
normalized percentage of neurons responding with a plateau (compared to P-CTX-2 alone) [4]: 7.9±3.3%
normalized second peak amplitude in responding cells (% of P-CTX-2 alone) [4]: 27.2±5.0%
P-CTX-2-induced SP release, reduced to (% of P-CTX-2 alone) [5]: 15.0±7.9%
normalized percentage of cells responding to PbTx-1 with the first peak [1]: 75.7±7.28%
normalized percentage of cells responding to PbTx-1 with the plateau [1]: 37.7±7.7%
normalized percentage of cells responding to PbTx-1 with the second peak [1]: 48.9±7.38%
PbTx-1-induced SP release with pre-treatment (normalized levels) [2]: 47±8.2%
PbTx-1-induced SP release, decreased to (% of PbTx-1 alone) [2]: 40.9±7.4%
inhibitory effect on PbTx-1-induced SP release [2]: 45.3±6.9%
PAR-2 calcium signaling / calcium mobilization [3]: inhibit

CCc1nn(CCCN2CCN(c3cccc(Cl)c3)CC2)c(=O)n1CCOc1ccccc1 [Nefazodone]
PAR-2 calcium signaling / calcium mobilization [3]: inhibit
ERK1/2 phosphorylation [6]: inhibit

OC[C@@H](O)[C@@H](O)[C@H](O)[C@H](O)CO [mannitol]
effectiveness in severe cases of poisoning supported early ([7]; iv): effectiveness
effectiveness in non-severe forms of intoxication [7]: not effective

CC(C)C[C@H](NC(=O)[C@H](Cc1ccccc1)NC(=O)OCc1ccccc1)C(=O)C=O [Z-FL-COCHO, Cbz-Phe-Leu-COCHO]
P-CTX-2-induced SP release, reduced to (% of P-CTX-2 alone) [5]: 13.1±6.1%
normalized percentage of cells responding to PbTx-1 with the first peak [1]: 48.2±11.1%
normalized percentage of cells responding to PbTx-1 with the plateau [1]: 41.0±13.8%
normalized percentage of cells responding to PbTx-1 with the second peak [1]: 45.2±11.1%
PbTx-1-induced SP release, decreased to (% of PbTx-1 alone) [2]: 80.4±4.1%
cell permeability [8]: poorly cell-permeant

COc1ccccc1OCCNCC(O)COc1cccc2[nH]c3ccccc3c12 (centres unmarked) [Carvedilol]
PAR-2 calcium signaling / calcium mobilization [3]: inhibit
ERK1/2 phosphorylation [6]: inhibit

NC1=N[C@H](O)[C@H]2[C@H]3O[C@]4(O)O[C@@H]([C@@H](O)[C@@]2(N1)[C@@H]4O)[C@]3(O)CO [TTX, Tetrodotoxin]
normalized amplitude of the first peak in responding cells (% of P-CTX-2 alone) [4]: 53.6±8.0% and 47.8±7.2%
normalized amplitude values of the plateau in responding cells (% of P-CTX-2 alone) [4]: 53.2±1.3% and 84.8±6.6%
normalized percentage of cells responding with the first peak (% of P-CTX-2 alone) [4]: 34.9±13.4% and 41.6±12.5%
normalized second peak amplitude in responding cells (% of P-CTX-2 alone) [4]: 33.7±3.5% and 61.9±16.1%
average ratio of the P-CTX-2-mediated calcium signal (ΔF/F0) [9]: 0.34±0.11
decrease of the average ratio of the P-CTX-2-mediated calcium signal [9]: approximately 70%
P-CTX-2-induced SP release, reduced to (% of P-CTX-2 alone) [5]: 29.3±7.3% and 53.1±11.3%
normalized amplitude of the second peak [1]: 3.4±3.4%
normalized percentage of cells responding to PbTx-1 with the first peak [1]: 65.20±14.50% and 34.40±21.24%
membrane expression of PAR-2 [10]: 95.3±4.9% and 92.7±1.3%

2-aminothiazol-4-yl-LIGRL-NH2 ({2‑aminothiazol‑4‑yl}-LIGRL-NH2)
PAR-2 calcium signaling / calcium mobilization [3]: inhibit
ERK1/2 phosphorylation [6]: inhibit

CCOC(=O)N1CCC(=C2c3ccc(Cl)cc3CCc3cccnc32)CC1 [Loratadine]
PAR-2 calcium signaling / calcium mobilization [3]: inhibit
ERK1/2 phosphorylation [6]: inhibit

COc1ccc(CCN2CCC(Nc3nc4ccccc4n3Cc3ccc(F)cc3)CC2)cc1 [Astemizole]
PAR-2 calcium signaling / calcium mobilization [3]: inhibit
ERK1/2 phosphorylation [6]: inhibit

C1CCC[C@H]2CCCN3CC[C@@H](CCCCCC[C@@H]4CCCN5CC[C@@H](CC1)O[C@@H]45)O[C@@H]23 [Xestospongin C]
normalized amplitude values in each phase (FIGS. 9B, 9D, 9F) [1]: No significant modification
normalized percentage of cells responding to PbTx-1 with the first peak [1]: did not decrease
normalized percentage of cells responding to PbTx-1 with the second peak [1]: 62.5±14.7%
PbTx-1-induced SP release with pre-treatment (normalized levels) [2]: 35.5±9.7%
